Experimental data published in patent US20060062866A1, “Starch-pomegranate juice complex as an HIV entry inhibitor and topical microbicide” (NEW YORK BLOOD CENTER, INC., priority 2004, published 2006).

target: T1, gp120-CD4 binding (Human immunodeficiency virus type 1 group M subtype B, UniProt P03375); parameters: species or system HIV-1; details: purified commercial compounds at 200 μg/ml
T1 construct: coated with 100 ng/well of either gp120 IIIB or gp120 BaL
Method: CD4-HIV-1 gp120 binding and its inhibition were measured by ELISA. Wells of 96-well polystyrene plates (Immulon II, Dynatech Laboratories, Inc., Chantilly, Va.) were coated with 100 ng/well of either gp120 IIIB or gp120 BaL, and post-coated as described [Neurath, A. R., Strick, N., Li, Y. Y., Debnath, A. K.: Cellulose acetate phthalate, a common pharmaceutical excipient, inactivates HIV-1 and blocks the coreceptor binding site on the virus envelope glycoprotein gp120, BMC Infect. Dis., (2001), 1:17]. […] The wells were washed 5× with TS. Biotinyl-CD4 (1 μg/ml) in TS-1% gelatin was added to the wells for 5 hours at 37° C. After washing 1× with TS-0.1% Tween 20 and 5× with TS, horseradish peroxidase (HRP)-streptavidin (0.625 μg/ml; Amersham, Arlington Heights, Ill.) in TS-2% gelatin-0.05% Tween 20 was added. After 30 minutes at 37° C., the wells were washed 4 x with TS-0.1% Tween 20 and 2× with TS. Bound HRP-was detected using a kit from Kirkegaard and Perry Laboratories Inc. (Gaithersburg, Md.) and the absorbance (A) read at 450 nm. […] In an alternative assay, CD4 (500 ng/ml) was mixed with biotinyl-gp120 (1 μg/ml) in the presence or absence of inhibitors for 30 minutes at 20° C. Serial dilutions of the mixtures were added to wells coated with the anti-CD4 mAb OKT 4 (Ortho-Clinical Diagnostics, Rochester, N.Y.) and captured biotinyl-gp120 was detected with HRP-streptavidin as described above. To measure binding to gp120 of antibodies to gp120 peptides, the respective rabbit antisera were diluted 50-fold in a mixture of FBS and goat serum (9:1) containing 0.1% Tween 20 (pH 8.0) and added to gp120 wells. Bound IgG was detected with HRP labeled anti-rabbit IgG (Sigma, St. Louis, Mo.; 1 μg/ml in TS-10% goat serum-0.1% Tween 20). […] Briefly, FLSC (125 ng/ml) in the absence or presence of graded amounts of inhibitors was added to Cf2Th/synCCR5 cells fixed with 5% formaldehyde in wells of 96-well plates.

Compound | blocking of gp120-CD4 binding (ELISA)
C[C@H]1[C@H](C)CC[C@]2(C(=O)O)CC[C@]3(C)C(=CC[C@@H]4[C@@]5(C)CC[C@H](O)C(C)(C)[C@@H]5CC[C@]43C)[C@H]12 [ursolic acid] | did not block
O=C(O)/C=C/c1ccc(O)c(O)c1 [caffeic acid] | did not block
O=c1c(O)c(-c2ccc(O)c(O)c2)oc2cc(O)cc(O)c12 [quercetin] | did not block
catechin | did not block
